Test results as given in patent publication US9278942B2, “Non-steroidal compounds as androgen receptor modulators” (FLX Discoveries Oy, priority 2011, dated 2016).
Like-named read-outs stand apart in the source and are kept apart here.

Key:
[1] = target: T1, human AR (Homo sapiens, UniProt P10275); assay: AR antagonism assay: inhibition of transcriptional activation of AR (Probasin-luc reporter, COS-1 cells); format: cell-based; settings: compound 10.0 μM, relative luciferase response: 100% for testosterone (no antiandrogenic effect), 0% for complete antagonism; for remaining activity at 10 µM: COS-1, 18 h, read-out: AR antagonism against 100 nM testosterone ± S.D.
T1 construct: expressed in transfected cells; host or cells: COS-1
T1 sequence (P10275 1-920): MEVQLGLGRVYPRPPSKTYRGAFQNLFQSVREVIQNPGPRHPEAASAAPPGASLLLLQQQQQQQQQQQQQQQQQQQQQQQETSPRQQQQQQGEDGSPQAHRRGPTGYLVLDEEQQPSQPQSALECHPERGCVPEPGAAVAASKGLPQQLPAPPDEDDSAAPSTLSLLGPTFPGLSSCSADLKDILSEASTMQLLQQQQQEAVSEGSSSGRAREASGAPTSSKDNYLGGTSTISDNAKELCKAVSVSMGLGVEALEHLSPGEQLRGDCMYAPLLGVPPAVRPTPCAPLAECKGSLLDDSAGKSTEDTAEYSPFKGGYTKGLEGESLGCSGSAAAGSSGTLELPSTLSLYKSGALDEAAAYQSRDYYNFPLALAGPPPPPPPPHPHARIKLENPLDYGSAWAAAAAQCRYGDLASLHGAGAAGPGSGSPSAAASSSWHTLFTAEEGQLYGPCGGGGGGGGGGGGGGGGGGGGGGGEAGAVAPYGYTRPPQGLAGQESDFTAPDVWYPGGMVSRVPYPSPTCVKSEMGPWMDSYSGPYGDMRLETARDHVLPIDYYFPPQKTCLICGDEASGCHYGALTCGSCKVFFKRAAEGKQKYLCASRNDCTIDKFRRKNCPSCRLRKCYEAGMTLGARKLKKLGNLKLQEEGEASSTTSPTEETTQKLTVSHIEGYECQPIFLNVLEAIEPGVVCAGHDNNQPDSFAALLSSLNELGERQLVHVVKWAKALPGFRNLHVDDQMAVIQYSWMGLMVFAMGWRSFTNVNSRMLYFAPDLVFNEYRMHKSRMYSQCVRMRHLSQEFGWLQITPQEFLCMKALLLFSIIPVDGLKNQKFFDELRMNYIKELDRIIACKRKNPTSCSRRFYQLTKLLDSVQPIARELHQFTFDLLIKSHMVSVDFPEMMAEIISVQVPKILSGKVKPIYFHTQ
Experimental: Determination of the Antiandrogen Activity.
Testosterone was bought from Sigma Chemical Co. (St. Louis, Mo.) and hydroxyflutamide from Chemos GmbH. One day before transfection, COS-1 cells (from ATCC) were seeded into 1 ml of DMEM (Dulbecco's modified Eagle medium, Gibco) with 10% dextran-charcoal-treated fetal bovine serum and 0.25% (vol/vol) Penicillin-Streptomycin (Euroclone) at a density of 70×10^3 cells/well. After medium change to DMEM 2.5% FBS, the cells were transfected for 24 hours with 10 ng/well of human AR expression vector pSG5-hAR, 100 ng/well of reporter plasmid Probasin-luc, and 10 ng/well of control plasmid pCMV-β-gal by using the TransIT method (Micrus Bio TransIT LT1, Transfection Reagent). After the transfection, the cells received treatment of test compounds giving final concentration of 10 μM for each compound. In the antagonist test the wells were also treated with 100 nM final concentration of testosterone. After 18 hours, the cells were washed, lysed and assayed for luciferase and normalization for β-galactosidase activities and protein concentrations. The cells were washed with 100 μl of cold phosphate buffered saline (PBS) and lysed with 35 μl 1× Reporter lysis Buffer (Promega) and frozen (−70° C.) for 30 minutes. Cell lysates were placed in 1.5-ml propylene tubes and centrifuged at 13200×g for 5 minutes at room temperature. For β-galactosidase assay 10 μl of supernatant from each cell extract was transferred to a 96-well plate (96 well Elisa Microplates, PS, Microcon) and incubated for 10 minutes at 37° C. with 65 μl of reaction mixture consisting 0.76 μl 100×Mg-buffer, 12.5 μl ONPG (4 mg/ml), and 54.3 μl of sodium-phosphate buffer (pH 7). The reaction was stopped with treatment of 125 μl Na2CO3. For luciferase assay 10 μl of the supernatant was transferred to a 96-well plate (Greiner Microlon lumitrac 200) and treated with 30 μl of luciferase assay substrate solution (Promega Luciferase Assay System E1501). For the study of protein concentrations 5 μl of the supernatant was transferred to a 96-well plate (Elisa Microplates, PS, Microcon) and mixed with 200 μl of Bio-rad protein assay reagent. The luciferase activities were measured with Thermo Luminoscan Ascent scanner and the protein concentrations and β-galactosidase activities with Thermo Labsystem Multiscan Ex scanner. Also blank and control samples were measured. During the maintenance, transfection, and treatment with tested compounds the cells were incubated in humidified atmosphere with 5% carbon dioxide at 37° C.

[2] = target: T1, human AR; assay: Competitive AR binding assay against [3H]-R1881 in transiently transfected COS-1 cells; settings: compound 13.4 μM, [3H]-R1881 1.34 nM, complete inhibition equals 100%; for inhibition at 13.4 µM: read-out: Inhibition of [3H]-R1881 binding at 1.34 nM ± S.D.
Experimental: Competitive AR Binding Assay.
AR binding was measured by a competitive assay against [^3H]-R1881 (PerkinElmer) in transiently transfected COS-1 cells. One day before transfection, COS-1 cells were seeded into 2 ml of DMEM (Dulbecco's modified Eagle medium, Gipco) with 10% dextran-charcoal-treated fetal bovine serum and 0.25% (vol/vol) Penicillin-Streptomysin (Euroclone) at a density of 140×10^3 cells/well. After medium change to DMEM 2.5% FBS, the cells were transfected for 24 hours with 10 ng/well of human AR expression vector pSG5 hAR by using the TransIT method (Micrus Bio TransIT LT1, Transfection Reagent). After 36 hours, the cells where treated with tested compounds using 10000 fold molarities compared to labelled R1881 (1.34 nM). After 2 hours of incubation at 37° C., the medium was removed. The cells were removed from the wells to 150 μl of 1× phosphate buffered saline (PBS), transferred to Eppendorf tubes and centrifuged at 4° C. using 4000×g for 5 min, and then washed twice with 150 μl of PBS. The cell pellets were dissolved to 50 μl of 0.5M NaOH and incubated for 15 min at 56° C., after which the samples (three replicates for each sample compound) were transferred to liquid twinkle tubes with 3 ml of OptiPhase HiSafe 3 twinkle solution (PerkinElmer) and radioactivity of AR-bound [^3H]-R1881 determined. The results were measured with LKB WALLAC 1214 racbeta equipment. The ability of test compounds to bind AR is reported as reduction in bound radioactivity obtained with 1.34 nM [^3H]-R1881.
The results (% inhibition) were calculated as: % inhibition=100−[100×(averagecompound/average[3H]-R1881)].

AR antagonism against 100 nM testosterone ± S.D. [1]	inhibition at 13.4 µM ([2]; Table 3)	remaining activity at 10 µM [1]	inhibition at 13.4 µM ([2]; Table 2)	SMILES	further results
		54.6 ± 2.3%	84.6 ± 4.9%	Fc1ccc(C2=NOC3CCCC23)cc1C(F)(F)F (centres unmarked) [Example 19ab, 3-(4-Fluoro-3-trifluoromethyl-phenyl)-4,5,6,6a-tetrahydro-3aH-cyclopenta[d]-isoxazole]	
	89.3 ± 3.8%	23.2 ± 0.5%		Fc1ccc(C2=NOC3CCCC23)c(C(F)(F)F)c1 (centres unmarked) [Example 20a, 3-(4-Fluoro-2-trifluoromethyl-phenyl)-4,5,6,6a-tetrahydro-3aH-cyclopenta[d]isoxazole]	
37.4 ± 7.3%				Fc1ccc(C2=NOC3CCCC23)c(C(F)(F)F)c1 (centres unmarked) [Example 20b, 3-(4-Fluoro-2-trifluoromethyl-phenyl)-4,5,6,6a-tetrahydro-3aH-cyclopenta[d]isoxazole]	Inhibition of [3H]-R1881 binding at 1.34 nM ± S.D. ([2]; Table 3): 85.3 ± 2.8%
		53.4 ± 5.4%	88.5 ± 4.2%	Fc1ccc(C2=NOC3CCCCC23)cc1C(F)(F)F (centres unmarked) [Example 35ab, 3-(4-Fluoro-3-trifluoromethyl-phenyl)-3a,4,5,6,7,7a-hexahydro-benzo-[d]-isoxazole]	
		49.7 ± 5.1%	84.6 ± 0.7%	Fc1ccc(C2=NOC3CCCCC23)c(C(F)(F)F)c1 (centres unmarked) [Example 36a, 3-(4-Fluoro-2-trifluoromethyl-phenyl)-3a,4,5,6,7,7a-hexahydro-benzo[d]-isoxazole]	
30.0 ± 6.1%				Fc1ccc(C2=NOC3CCCCC23)c(C(F)(F)F)c1 (centres unmarked) [Example 36b, 3-(4-Fluoro-2-trifluoromethyl-phenyl)-3a,4,5,6,7,7a-hexahydro-benzo[d]-isoxazole]	Inhibition of [3H]-R1881 binding at 1.34 nM ± S.D. ([2]; Table 2): 87.7 ± 3.0%

The next lines start with the compound.

SMILES	AR antagonism against 100 nM testosterone ± S.D. [1]	inhibition at 13.4 µM ([2]; Table 3)	remaining activity at 10 µM [1]	inhibition at 13.4 µM ([2]; Table 2)	further results
N#Cc1ccc(C2=NOC3CCCCCCC23)c(C(F)(F)F)c1 (single isomer, unassigned) [Example 93a, 4-(3a,4,5,6,7,8,9,9a-Octahydro-cycloocta[d]isoxazol-3-yl)-3-trifluoromethyl-benzonitrile]	9.4 ± 0.3%	87.2 ± 2.9%			
N#Cc1ccc(C2=NOC3CCCCCCC23)c(C(F)(F)F)c1 (single isomer, unassigned) [Example 93b, 4-(3a,4,5,6,7,8,9,9a-Octahydro-cycloocta[d]isoxazol-3-yl)-3-trifluoromethyl-benzonitrile]	65.5 ± 9.0%				Inhibition of [3H]-R1881 binding at 1.34 nM ± S.D. ([2]; Table 3): 76.0 ± 4.8%
N#Cc1cccc(C2=NOC3CCCCC23)c1C(F)(F)F (single isomer, unassigned) [Example 94a, 3-(3a,4,5,6,7,7a-Hexahydro-benzo[d]isoxazol-3-yl)-2-trifluoromethyl-benzonitrile]	17.8 ± 3.9%	97.4 ± 0.4%			
N#Cc1cccc(C2=NOC3CCCCC23)c1C(F)(F)F (single isomer, unassigned) [Example 94b, 3-(3a,4,5,6,7,7a-Hexahydro-benzo[d]isoxazol-3-yl)-2-trifluoromethyl-benzonitrile]	5.4 ± 1.7%				Inhibition of [3H]-R1881 binding at 1.34 nM ± S.D. ([2]; Table 3): 97.6 ± 0.2%
O=[N+]([O-])c1ccc(C2=NOC3CCCC23)c(C(F)(F)F)c1 (centres unmarked) [Example 22ab, 3-(4-Nitro-2-trifluoromethyl-phenyl)-4,5,6,6a-tetrahydro-3aH-cyclopenta[d]isoxazole]		89.3 ± 4.7%	21.8 ± 4.1%		
O=[N+]([O-])c1ccc(C2=NOC3CCCCC23)cc1C(F)(F)F (centres unmarked) [Example 37ab, 3-(4-Nitro-3-trifluoromethyl-phenyl)-3a,4,5,6,7,7a-hexahydro-benzo-[d]-isoxazole]			10.6 ± 1.6%		inhibition at 13.4 µM ([2]; Table 1): 93.5 ± 0.9%
Fc1ccc(C2=NOC3CCCCCC23)cc1C(F)(F)F (centres unmarked) [Example 39ab, 3-(4-Fluoro-3-trifluoromethyl-phenyl)-4,5,6,7,8,8a-hexahydro-3aH-cyclohepta[d]isoxazole]			43.8 ± 2.4%	55.7 ± 5.8%	
